Measurements: patent US6825170B2, “6-O-acyl ketolide antibacterials” (Ortho-McNeil Pharmaceutical, Inc., priority 2001, dated 2004)
≈ marks a conversion by molar mass, not a printed value.

Legend:
Assay in all cases: MIC, microdilution broth method (NCCLS)
Format in all cases: cell-based
Settings in all cases: 35° C., 16-20 hours
E. faecalis ATCC29212 = system: E. faecalis ATCC29212
Procedure, shortened: (§1)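 NCCLS microdilution method in cation-adjusted Mueller-Hinton broth, serial two-fold dilutions, final inoculum approximately 5×10^4 CFU/well. MIC read after 16-20 hours' incubation at 35° C.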

H. influenzae ATCC49247 = system: H. influenzae ATCC49247
Procedure, shortened: as §1

S. pneumoniae ATCC49619 = system: S. pneumoniae ATCC49619
Procedure, shortened: as §1

S. aureus ATCC29213 = system: S. aureus ATCC29213
Procedure, shortened: as §1

SMILES	MIC (C: E. faecalis ATCC29212) (E. faecalis ATCC29212)	MIC (E: H. influenzae ATCC49247) (H. influenzae ATCC49247)	MIC (D: S. pneumoniae ATCC49619) (S. pneumoniae ATCC49619)	MIC (B: S. aureus ATCC29213) (S. aureus ATCC29213)
CCC1OC(=O)C(C)C(=O)C(C)C(OC2OC(C)CC(N(C)C)C2O)C(C)(OC(=O)OCC=Cc2ccc(-c3ccccn3)s2)CC(C)C(=O)C(C)C2NC(=O)OC12C (stereo not shown) [Compound 63]	0.12 µg/mL (≈ 0.143 µM)	1 µg/mL (≈ 1.19 µM)	0.06 µg/mL (≈ 0.0713 µM)	0.25 µg/mL (≈ 0.297 µM)
CCC1OC(=O)C(C)C(=O)C(C)C(OC2OC(C)CC(N(C)C)C2O)C(C)(OC(=O)OCC=Cc2ccc(-c3nnco3)cc2)CC(C)C(=O)C(C)C2NC(=O)OC12C (stereo not shown) [Compound 52]	0.06 µg/mL (≈ 0.0726 µM)	1 µg/mL (≈ 1.21 µM)	≦0.015 μg/mL	0.12 µg/mL (≈ 0.145 µM)
CCC1OC(=O)C(C)C(=O)C(C)C(OC2OC(C)CC(N(C)C)C2O)C(C)(OC(=O)OCC=Cc2ccc(-n3cncn3)cc2)CC(C)C(=O)C(C)C2NC(=O)OC12C (stereo not shown) [Compound 22]	0.06 µg/mL (≈ 0.0726 µM)	0.5 µg/mL (≈ 0.605 µM)	≦0.015 μg/mL	0.25 µg/mL (≈ 0.303 µM)
CCC1OC(=O)C(C)C(=O)C(C)C(OC2OC(C)CC(N(C)C)C2O)C(C)(OC(=O)NOCc2ccc(-c3cnccn3)cc2)CC(C)C(=O)C(C)C2NC(=O)OC12C (stereo not shown) [Compound 601]	0.12 µg/mL (≈ 0.145 µM)	2 µg/mL (≈ 2.42 µM)	0.03 µg/mL (≈ 0.0363 µM)	0.25 µg/mL (≈ 0.303 µM)
CC[C@H]1OC(=O)[C@H](C)C(=O)[C@H](C)[C@@H](O[C@@H]2O[C@H](C)C[C@H](N(C)C)[C@H]2O)[C@](C)(OC(=O)SC/C=C/c2ccccc2)C[C@@H](C)C(=O)[C@H](C)[C@H]2NC(=O)O[C@@]21C [Compound 830]	0.5 µg/mL (≈ 0.645 µM)	4 µg/mL (≈ 5.16 µM)	0.12 µg/mL (≈ 0.155 µM)	1 µg/mL (≈ 1.29 µM)
CC[C@H]1OC(=O)[C@H](C)C(=O)[C@H](C)[C@@H](O[C@@H]2O[C@H](C)C[C@H](N(C)C)[C@H]2O)[C@](C)(OC(=O)SCc2ccc(-c3ccccn3)s2)C[C@@H](C)C(=O)[C@H](C)[C@H]2NC(=O)O[C@@]21C [Compound 839]	0.12 µg/mL (≈ 0.144 µM)	2 µg/mL (≈ 2.4 µM)	0.06 µg/mL (≈ 0.0721 µM)	1 µg/mL (≈ 1.2 µM)
CC[C@H]1OC(=O)[C@H](C)C(=O)[C@H](C)[C@@H](O[C@@H]2O[C@H](C)C[C@H](N(C)C)[C@H]2O)[C@](C)(OC(=O)N(C)N(C)Cc2ccc(-c3cnccn3)cc2)C[C@@H](C)C(=O)[C@H](C)[C@H]2NC(=O)O[C@@]21C [Compound 819]	1 µg/mL (≈ 1.17 µM)	>16 µg/mL	0.25 µg/mL (≈ 0.293 µM)	16 µg/mL (≈ 18.8 µM)
CCC1OC(=O)C(C)C(=O)C(C)C(OC2OC(C)CC(N(C)C)C2O)C(C)(OC(=O)OCC=Cc2ccc(-c3ccn(C)n3)cc2)CC(C)C(=O)C(C)C2NC(=O)OC12C (stereo not shown) [Compound 26]	0.12 µg/mL (≈ 0.143 µM)	2 µg/mL (≈ 2.38 µM)	0.03 µg/mL (≈ 0.0358 µM)	0.25 µg/mL (≈ 0.298 µM)
CC[C@H]1OC(=O)[C@H](C)C(=O)[C@H](C)[C@@H](O[C@@H]2O[C@H](C)C[C@H](N(C)C)[C@H]2O)[C@](C)(OC(=O)SCc2cn(-c3ncccn3)cn2)C[C@@H](C)C(=O)[C@H](C)[C@H]2NC(=O)O[C@@]21C [Compound 841]	0.12 µg/mL (≈ 0.147 µM)	2 µg/mL (≈ 2.45 µM)	0.03 µg/mL (≈ 0.0367 µM)	0.5 µg/mL (≈ 0.612 µM)
CCC1OC(=O)C(C)C(=O)C(C)C(OC2OC(C)CC(N(C)C)C2O)C(C)(OC(=O)OCC=Cc2ccc(-c3ncc(Br)cn3)cc2)CC(C)C(=O)C(C)C2NC(=O)OC12C (stereo not shown) [Compound 56]	0.25 µg/mL (≈ 0.273 µM)	2 µg/mL (≈ 2.18 µM)	0.06 µg/mL (≈ 0.0655 µM)	0.5 µg/mL (≈ 0.546 µM)
CCc1cnc(-c2ccc(C=CCOC(=O)OC3(C)CC(C)C(=O)C(C)C4NC(=O)OC4(C)C(CC)OC(=O)C(C)C(=O)C(C)C3OC3OC(C)CC(N(C)C)C3O)cc2)nc1 (stereo not shown) [Compound 58]	0.5 µg/mL (≈ 0.578 µM)	4 µg/mL (≈ 4.62 µM)	0.06 µg/mL (≈ 0.0694 µM)	0.5 µg/mL (≈ 0.578 µM)
CC[C@H]1OC(=O)[C@H](C)C(=O)[C@H](C)[C@@H](O[C@@H]2O[C@H](C)C[C@H](N(C)C)[C@H]2O)[C@](C)(OC(=O)NN=CCc2ccc(-c3ncccn3)cc2)C[C@@H](C)C(=O)[C@H](C)[C@H]2NC(=O)O[C@@]21C [Compound 826]	2 µg/mL (≈ 2.39 µM)	8 µg/mL (≈ 9.56 µM)	0.25 µg/mL (≈ 0.299 µM)	8 µg/mL (≈ 9.56 µM)
CCC1OC(=O)C(C)C(=O)C(C)C(OC2OC(C)CC(N(C)C)C2O)C(C)(OC(=O)OCC(F)=Cc2ccc(-c3cccnn3)cc2)CC(C)C(=O)C(C)C2NC(=O)OC12C (stereo not shown) [Compound 168]	0.06 µg/mL (≈ 0.0702 µM)	0.5 µg/mL (≈ 0.585 µM)	≦0.015 μg/mL	0.12 µg/mL (≈ 0.14 µM)
CCC1OC(=O)C(C)C(=O)C(C)C(OC2OC(C)CC(N(C)C)C2O)C(C)(OC(=O)OCCC#Cc2ccc(-c3ncccn3)cc2)CC(C)C(=O)C(C)C2NC(=O)OC12C (stereo not shown) [Compound 137]	0.12 µg/mL (≈ 0.141 µM)	4 µg/mL (≈ 4.71 µM)	0.03 µg/mL (≈ 0.0353 µM)	0.25 µg/mL (≈ 0.294 µM)
CC[C@H]1OC(=O)[C@H](C)C(=O)[C@H](C)[C@@H](O[C@@H]2O[C@H](C)C[C@H](N(C)C)[C@H]2O)[C@](C)(OC(=O)NNS(=O)(=O)c2ccc(C)cc2)C[C@@H](C)C(=O)[C@H](C)[C@H]2NC(=O)O[C@@]21C [Compound 809]	0.5 µg/mL (≈ 0.617 µM)	2 µg/mL (≈ 2.47 µM)	0.03 µg/mL (≈ 0.037 µM)	1 µg/mL (≈ 1.23 µM)
CC[C@H]1OC(=O)[C@@](C)(F)C(=O)[C@H](C)[C@@H](O[C@@H]2O[C@H](C)C[C@H](N(C)C)[C@H]2O)[C@](C)(OC(=O)NOC/C=C/c2ccc(-c3ncccn3)cc2)C[C@@H](C)C(=O)[C@H](C)[C@H]2NC(=O)O[C@@]21C [Compound 622]	0.25 µg/mL (≈ 0.287 µM)	4 µg/mL (≈ 4.6 µM)	0.03 µg/mL (≈ 0.0345 µM)	0.25 µg/mL (≈ 0.287 µM)
CC[C@H]1OC(=O)[C@H](C)C(=O)[C@H](C)[C@@H](O[C@@H]2O[C@H](C)C[C@H](N(C)C)[C@H]2O)[C@](C)(OC(=O)Cc2ccccc2)C[C@@H](C)C(=O)[C@H](C)[C@H]2NC(=O)O[C@@]21C [Compound 843]	2 µg/mL (≈ 2.79 µM)	16 µg/mL (≈ 22.3 µM)	0.5 µg/mL (≈ 0.697 µM)	8 µg/mL (≈ 11.2 µM)
CC[C@H]1OC(=O)[C@H](C)C(=O)[C@H](C)[C@@H](O[C@@H]2O[C@H](C)C[C@H](N(C)C)[C@H]2O)[C@](C)(OC(=O)SCCc2ccc(-n3cncn3)cc2)C[C@@H](C)C(=O)[C@H](C)[C@H]2NC(=O)O[C@@]21C [Compound 836]	0.12 µg/mL (≈ 0.145 µM)	1 µg/mL (≈ 1.2 µM)	0.03 µg/mL (≈ 0.0361 µM)	0.25 µg/mL (≈ 0.301 µM)
CCC1OC(=O)C(C)C(=O)C(C)C(OC2OC(C)CC(N(C)C)C2O)C(C)(OC(=O)OCC#Cc2cc(-c3ccccn3)no2)CC(C)C(=O)C(C)C2NC(=O)OC12C (stereo not shown) [Compound 122]	0.06 µg/mL (≈ 0.0727 µM)	1 µg/mL (≈ 1.21 µM)	≦0.015 μg/mL	0.12 µg/mL (≈ 0.145 µM)
CCC1OC(=O)C(C)C(=O)C(C)C(OC2OC(C)CC(N(C)C)C2O)C(C)(OC(=O)OCC=Cc2ccc(-c3nccs3)cc2)CC(C)C(=O)C(C)C2NC(=O)OC12C (stereo not shown) [Compound 49]	0.12 µg/mL (≈ 0.143 µM)	1 µg/mL (≈ 1.19 µM)	0.03 µg/mL (≈ 0.0356 µM)	0.12 µg/mL (≈ 0.143 µM)
CC[C@H]1OC(=O)[C@@](C)(F)C(=O)[C@H](C)[C@@H](O[C@@H]2O[C@H](C)C[C@H](N(C)C)[C@H]2O)[C@](C)(OC(=O)NOCC#Cc2cnc3ccccc3c2)C[C@@H](C)C(=O)[C@H](C)[C@H]2NC(=O)O[C@@]21C [Compound 623]	0.12 µg/mL (≈ 0.143 µM)	4 µg/mL (≈ 4.76 µM)	0.03 µg/mL (≈ 0.0357 µM)	0.25 µg/mL (≈ 0.297 µM)
CC[C@H]1OC(=O)[C@H](C)C(=O)[C@H](C)[C@@H](O[C@@H]2O[C@H](C)C[C@H](N(C)C)[C@H]2O)[C@](C)(OC(=O)NNC(=O)c2ccccc2)C[C@@H](C)C(=O)[C@H](C)[C@H]2NC(=O)O[C@@]21C [Compound 813]	1 µg/mL (≈ 1.31 µM)	16 µg/mL (≈ 21 µM)	0.25 µg/mL (≈ 0.329 µM)	16 µg/mL (≈ 21 µM)
